Where two headings read alike, the source gives them in different places.
Legend:
[1] = test system: phosphorylated AKT Ser473 (pAKT S473), mTORC2 activity, PC3 cells; assay: mTOR target engagement assay, immunofluorescent cell-based, pAKT S473 readout (mTORC2 activity)
Method in brief: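 After blocking, cells were stained overnight at 4 °C with anti-pAKT S473 antibody, then a fluorescent secondary; inhibition was read as reduced fluorescence intensity.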

[2] = test system: phosphorylated 4E-BP1 Thr37/46 (p4E-BP1 Thr37/46), mTORC1 activity, PC3 cells; assay: mTOR target engagement assay, immunofluorescent cell-based, p4E-BP1 Thr37/46 readout (mTORC1 activity); conditions: read-out: p4E-BP1 Thr37/46 IC50
Method in brief: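 Seed PC3 cells overnight; treat with compound dilutions for ninety minutes at 37° C; fix with glyoxal and block; stain with anti-p4E-BP1 Thr37/46 overnight at 4° C, then fluorescent secondary; read fluorescence and fit IC50 against DMSO-only controls.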

SMILES | IC50 ([1]; Homo sapiens, PC-3, PC3 cells) | IC50 ([2]; Homo sapiens, PC-3, PC3 cells) | IC50 ([1]; PC3 cells) | IC50 ([2]; PC3 cells)
[2H]C1(O)CCCc2cc(-c3cnn4c(N)c(C(C)=O)c([C@H]5CC6CC[C@H](C5)N6C(=O)c5nnc[nH]5)nc34)cnc21 (stereo partly drawn) [Compound 7.57, DEUTERATED-(3- EXO)-3-[6-ACETYL-7- AMINO-3-(5,6,7,8- TETRAHYDRO-8- HYDROXY-3- QUINOLINYL- (D))PYRAZOLO[1,5- a]PYRIMIDIN-5-YL]-8- (4H-1,2,4-TRIAZOL-3- YLCARBONYL)-8- AZABICYCLO[3.2.1] OCTANE] | 0.1 to 1 µM | 0.001 to 0.1 µM |  | 
CC(=O)c1c([C@@H]2C[C@H]3CC[C@@H](C2)N3C(=O)c2nnc[nH]2)nc2c(-c3cnc4c(c3)CCCC4O)cnn2c1N (stereo partly drawn) [Compound 7.58, 1-(5-((1R,3s,5S)-8-(4H-1,2,4-triazole-3-carbonyl)-8-azabicyclo[3.2.1]octan-3-yl)-7-amino-3-(8-hydroxy-5,6,7,8-tetrahydroquinolin-3-yl)pyrazolo[1,5-a]pyrimidin-6-yl)ethanone] |  | 0.001 to 0.1 µM | 0.001 to 0.1 µM | 
CC(=O)c1c([C@@H]2C[C@H]3CC[C@@H](C2)N3C(=O)c2nnc[nH]2)nc2c(-c3cnc4c(c3)CCCC4O)cnn2c1N (stereo partly drawn) [Compound 7.59, 1-(5-((1R,3s,5S)-8-(4H-1,2,4-triazole-3-carbonyl)-8-azabicyclo[3.2.1]octan-3-yl)-7-amino-3-(8-hydroxy-5,6,7,8-tetrahydroquinolin-3-yl)pyrazolo[1,5-a]pyrimidin-6-yl)ethanone] |  |  | 0.1 to 1 µM | 0.001 to 0.1 µM
Nc1c(C2CC2)c([C@H]2CC3CC[C@H](C2)N3C(=O)c2nnc[nH]2)nc2c(-c3cnc4c(c3)CCC4O)cnn12 (stereo partly drawn) [Compound 7.61, ((1R,3s,5S)-3-(7-amino-6-cyclopropyl-3-(7-hydroxy-6,7-dihydro-5H-cyclopenta[b]pyridin-3-yl)pyrazolo[1,5-a]pyrimidin-5-yl)-8-azabicyclo[3.2.1]octan-8-yl)(4H-1,2,4-triazol-3-yl)methanone] | 0.001 to 0.1 µM | 0.001 to 0.1 µM |  | 
CS(=O)(=O)c1c([C@H]2CC3CC[C@H](C2)N3C(=O)c2nnc[nH]2)nc2c(-c3cnc4c(c3)CCC4O)cnn2c1N (stereo partly drawn) [Compound 7.62, ((1R,3s,5S)-3-(7-amino-3-(7-hydroxy-6,7-dihydro-5H-cyclopenta[b]pyridin-3-yl)-6-(methylsulfonyl)pyrazolo [1,5-a]pyrimidin-5-yl)-8-azabicyclo[3.2.1]octan-8-yl)(4H-1,2,4-triazol-3-yl)methanone] | 1 to 10 µM | 1 to 10 µM |  | 
CC(=O)c1c([C@H]2CC3CC[C@H](C2)N3C(=O)c2nnc[nH]2)nc2c(-c3cnc4c(c3)OCCC4O)cnn2c1N (stereo partly drawn) [Compound 7.63, 1-(5-((1R,3s,5S)-8-(4H-1,2,4-triazole-3-carbonyl)-8-azabicyclo[3.2.1]octan-3-yl)-7-amino-3-(4-hydroxy-3,4-dihydro-2H-pyrano[3,2-b]pyridin-7-yl)pyrazolo[1,5-a]pyrimidin-6-yl)ethanone] | 0.1 to 1 µM | 0.001 to 0.1 µM |  | 
Nc1c(C2CC2)c([C@H]2CC3CC[C@H](C2)N3C(=O)c2nnc[nH]2)nc2c(-c3cnc4c(c3)OCCC4O)cnn12 (stereo partly drawn) [Compound 7.64, ((1R,3s,5S)-3-(7-amino-6-cyclopropyl-3-(4-hydroxy-3,4-dihydro-2H-pyrano[3,2-b]pyridin-7-yl)pyrazolo[1,5-a]pyrimidin-5-yl)-8-azabicyclo[3.2.1]octan-8-yl)(4H-1,2,4-triazol-3-yl)methanone] | 0.1 to 1 µM | 0.1 to 1 µM |  | 
CC(=O)c1c([C@H]2CC3CC[C@H](C2)N3C(=O)c2nnc[nH]2)nc2c(-c3ccc(C(O)C(F)(F)F)nc3)cnn2c1N (stereo partly drawn) [Compound 7.65, 1-(5-((1R,3s,5S)-8-(4H-1,2,4-triazole-3-carbonyl)-8-azabicyclo[3.2.1]octan-3-yl)-7-amino-3-(6-(2,2,2-trifluoro-1-hydroxyethyl)pyridin-3-yl)pyrazolo[1,5-a]pyrimidin-6-yl)ethanone] | 0.1 to 1 µM | 0.1 to 1 µM |  | 
CC(=O)c1c([C@@H]2C[C@H]3CC[C@@H](C2)N3C(=O)c2cc[nH]n2)nc2c(-c3ccc(C(O)C(F)(F)F)nc3)cnn2c1N (stereo partly drawn) [Compound 7.66, 1-(5-((1R,3s,5S)-8-(1H-pyrazole-3-carbonyl)-8-azabicyclo[3.2.1]octan-3-yl)-7-amino-3-(6-(2,2,2-trifluoro-1-hydroxyethyl)pyridin-3-yl)pyrazolo[1,5-a]pyrimidin-6-yl)ethanone] | 1 to 10 µM | 0.1 to 1 µM |  | 
CC(=O)c1c([C@@H]2C[C@H]3CC[C@@H](C2)N3C(=O)CO)nc2c(-c3ccc(C(O)C(F)(F)F)nc3)cnn2c1N (stereo partly drawn) [Compound 7.67, 1-((1R,3s,5S)-3-(6-acetyl-7-amino-3-(6-(2,2,2-trifluoro-1-hydroxyethyl)pyridin-3-yl)pyrazolo[1,5-a]pyrimidin-5-yl)-8-azabicyclo[3.2.1]octan-8-yl)-2-hydroxyethanone] | 1 to 10 µM | 0.1 to 1 µM |  | 
CS(=O)(=O)c1c([C@H]2CC3CC[C@H](C2)N3C(=O)c2cc[nH]n2)nc2c(-c3ccc(C(O)C(F)(F)F)nc3)cnn2c1N (stereo partly drawn) [Compound 7.69, ((1R,3s,5S)-3-(7-amino-6-(methylsulfonyl)-3-(6-(2,2,2-trifluoro-1-hydroxyethyl)pyridin-3-yl)pyrazolo[1,5-a]pyrimidin-5-yl)-8-azabicyclo[3.2.1]octan-8-yl)(1H-pyrazol-3-yl)methanone] | 1 to 10 µM | 1 to 10 µM |  | 
CS(=O)(=O)c1c([C@@H]2C[C@H]3CC[C@@H](C2)N3C(=O)CO)nc2c(-c3ccc(C(O)C(F)(F)F)nc3)cnn2c1N (stereo partly drawn) [Compound 7.70, 1-((1R,3s,5S)-3-(7-amino-6-(methylsulfonyl)-3-(6-(2,2,2-trifluoro-1-hydroxyethyl)pyridin-3-yl)pyrazolo[1,5-a]pyrimidin-5-yl)-8-azabicyclo[3.2.1]octan-8-yl)-2-hydroxyethanone] | 1 to 10 µM | 1 to 10 µM |  | 
Cc1nnc(C(=O)N2[C@@H]3CC[C@H]2C[C@H](c2nc4c(-c5ccc(C6(O)CCC6)nc5)cnn4c(N)c2C2CC2)C3)[nH]1 [Compound 7.71, ((1R,3s,5S)-3-(7-amino-6-cyclopropyl-3-(6-(1-hydroxycyclobutyl)pyridin-3-yl)pyrazolo[1,5-a]pyrimidin-5-yl)-8-azabicyclo[3.2.1]octan-8-yl)(5-methyl-4H-1,2,4-triazol-3-yl)methanone] | 0.1 to 1 µM | 0.1 to 1 µM |  | 
Nc1c(C2CC2)c([C@@H]2C[C@H]3CC[C@@H](C2)N3C(=O)CO)nc2c(-c3ccc(C4(O)CCC4)nc3)cnn12 [Compound 7.72, 1-((1R,3s,5S)-3-(7-amino-6-cyclopropyl-3-(6-(1-hydroxycyclobutyl)pyridin-3-yl)pyrazolo[1,5-a]pyrimidin-5-yl)-8-azabicyclo[3.2.1]octan-8-yl)-2-hydroxyethanone] | 0.1 to 1 µM | 0.1 to 1 µM |  | 
CC(=O)c1c([C@@H]2C[C@H]3CC[C@@H](C2)N3C(=O)c2nnc[nH]2)nc2c(-c3ccc([C@@H](O)C(F)(F)F)nc3)cnn2c1N [Compound 7.73, 1-(5-((1R,3s,5S)-8-(4H-1,2,4-triazole-3-carbonyl)-8-azabicyclo[3.2.1]octan-3-yl)-7-amino-3-(6-((R)-2,2,2-trifluoro-1-hydroxyethyl)pyridin-3-yl)pyrazolo[1,5-a]pyrimidin-6-yl)ethanone] | 0.1 to 1 µM | 0.1 to 1 µM |  | 
CC(=O)c1c([C@@H]2C[C@H]3CC[C@@H](C2)N3C(=O)c2nnc[nH]2)nc2c(-c3ccc([C@H](O)C(F)(F)F)nc3)cnn2c1N [Compound 7.74, 1-(5-((1R,3s,5S)-8-(4H-1,2,4-triazole-3-carbonyl)-8-azabicyclo[3.2.1]octan-3-yl)-7-amino-3-(6-((S)-2,2,2-trifluoro-1-hydroxyethyl)pyridin-3-yl)pyrazolo[1,5-a]pyrimidin-6-yl)ethanone] | 0.1 to 1 µM | 0.1 to 1 µM |  | 
CC(=O)c1c([C@@H]2C[C@H]3CC[C@@H](C2)N3C(=O)c2nnc(N)[nH]2)nc2c(-c3ccc(C(O)(C(F)(F)F)C(F)(F)F)nc3)cnn2c1N [Compound 7.78, 1-(7-amino-5-((1R,3s,5S)-8-(5-amino-4H-1,2,4-triazole-3-carbonyl)-8-azabicyclo[3.2.1]octan-3-yl)-3-(6-(1,1,1,3,3,3-hexafluoro-2-hydroxypropan-2-yl)pyridin-3-yl)pyrazolo[1,5-a]pyrimidin-6-yl)ethanone] | 0.1 to 1 µM | 0.1 to 1 µM |  | 
CC(=O)c1c([C@@H]2C[C@H]3CC[C@@H](C2)N3C(=O)c2cc(N)n[nH]2)nc2c(-c3ccc(C(O)(C(F)(F)F)C(F)(F)F)nc3)cnn2c1N [Compound 7.79, 1-(7-amino-5-((1R,3s,5S)-8-(3-amino-1H-pyrazole-5-carbonyl)-8-azabicyclo[3.2.1]octan-3-yl)-3-(6-(1,1,1,3,3,3-hexafluoro-2-hydroxypropan-2-yl)pyridin-3-yl)pyrazolo[1,5-a]pyrimidin-6-yl)ethanone] | 0.1 to 1 µM | 0.1 to 1 µM |  | 
CC(=O)c1c([C@@H]2C[C@H]3CC[C@@H](C2)N3C(=O)c2nnc[nH]2)nc2c(-c3ccc(C(N)(C(F)(F)F)C(F)(F)F)nc3)cnn2c1N [Compound 7.80, 1-(5-((1R,3s,5S)-8-(4H-1,2,4-triazole-3-carbonyl)-8-azabicyclo[3.2.1]octan-3-yl)-7-amino-3-(6-(2-amino-1,1,1,3,3,3-hexafluoropropan-2-yl)pyridin-3-yl)pyrazolo[1,5-a]pyrimidin-6-yl)ethanone] | 1 to 10 µM | 0.1 to 1 µM |  | 
CC(=O)c1c([C@@H]2C[C@H]3CC[C@@H](C2)N3C(=O)CO)nc2c(-c3ccc(C(N)(C(F)(F)F)C(F)(F)F)nc3)cnn2c1N [Compound 7.81, 1-((1R,3s,5S)-3-(6-acetyl-7-amino-3-(6-(2-amino-1,1,1,3,3,3-hexafluoropropan-2-yl)pyridin-3-yl)pyrazolo[1,5-a]pyrimidin-5-yl)-8-azabicyclo[3.2.1]octan-8-yl)-2-hydroxyethanone] | > 10 µM | 1 to 10 µM |  | 

From patent US9227971B2, “Pyrazolo[1,5-a]pyrimidine compounds as mTOR inhibitors” (Merck Sharp & Dohme Corp., priority 2010, dated 2016)
